Patent publication US20250179103A1, “6-OXODECAHYDROPYRROLO[1,2-A][1,5]DIAZOCINE AND 6-OXODECAHYDRO-4H-PYRROLO[2,1-D][1,5]THIAZOCINE DERIVATIVES AS STAT3 AND STAT6 MODULATORS FOR THE TREATMENT OF CANCER AND INFLAMMATORY CONDITIONS” (Recludix Pharma, Inc., priority 2022, published 2025)

Key:
[1] = tested on: pY641-STAT6 in Peripheral Blood Mononuclear Cells (PBMC); assay: MSD-pSTAT-PBMC Assay (pSTAT6, IL-4 stimulated); format: cell-based, Human; details: Homo sapiens, compound 3 hrs, then 1 ng/mL IL-4 for 10 min
Method in brief: (§1)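 Phospho-STAT readout used MSD electrochemiluminescence with total STAT3 or STAT6 capture in lysates of cryopreserved human PBMCs. Cells had 3 h compound exposure before a 10 min cytokine pulse: IL-6 10 ng/mL for pSTAT3, IL-4 1 ng/mL for pSTAT6. IC50 came from background-subtracted, DMSO-normalised signal, with categories A≤100 nM up to D>3 μM.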

[2] = tested on: pY705-STAT3 in Peripheral Blood Mononuclear Cells (PBMC); assay: MSD-pSTAT-PBMC Assay (pSTAT3, IL-6 stimulated); format: cell-based, Human; details: Homo sapiens, compound 3 hrs, then 10 ng/mL IL-6 for 10 min
Method in brief: as §1

Structure (SMILES) | IC50 [1] | IC50 [2]
CN(CC(C)(C)C#N)C(=O)[C@@H]1CC[C@@H]2CCN(CC(F)F)C[C@H](NC(=O)c3cc4cc(C(F)(F)P(=O)(OCOC(=O)C(C)(C)C)OCOC(=O)C(C)(C)C)ccc4s3)C(=O)N21 [Compound 352, ((((2-(((5S,8S,10aR)-8-((2-cyano-2-methylpropyl)(methyl)carbamoyl)-3-(2,2-difluoroethyl)-6-oxodecahydropyrrolo[1,2-a][1,5]diazocin-5-yl)carbamoyl)benzo[b]thiophen-5-yl)difluoromethyl)phosphoryl)bis (oxy))bis(methylene) bis(2,2-dimethylpropanoate)] | ≤ 100 nM | ≤ 100 nM
CCN1CC[C@H]2CC[C@@H](C(=O)N3CC(C(=O)N4CCOCC4)C3)N2C(=O)[C@@H](NC(=O)c2cc3cc(C(F)(F)P(=O)(OCOC(=O)C(C)(C)C)OCOC(=O)C(C)(C)C)ccc3s2)C1 [Compound 353, ((((2-(((5S,8S,10aR)-3-ethyl-8-(3-(morpholine-4-carbonyl)azetidine-1-carbonyl)-6-oxodecahydropyrrolo[1,2-a][1,5]diazocin-5-yl)carbamoyl)benzo[b]thiophen-5-yl)difluoromethyl)phosphoryl)bis(oxy)) bis(methylene) bis(2,2-dimethylpropanoate)] | > 3000 nM | ≤ 100 nM
